# From article PMC12196347, “Evaluating Triazole-Substituted Pyrrolopyrimidines as CSF1R Inhibitors” (Molecules, 2025)
# Like-named read-outs stand apart in the source and are kept apart here.
# What was measured:
# ROCK1 = ROCK1 (Homo sapiens, UniProt Q13464); assay: Kinase panel profiling: ROCK1; format: biochemical; settings: ATP equal to KM
# BTK = target: T1, BTK (Homo sapiens, UniProt Q06187); assay: Kinase panel profiling: BTK; format: biochemical; settings: ATP equal to KM
# T1 construct: purchased Thermo Fisher Scientific (Invitrogen) SelectScreen (Z'-LYTE)
# DAPK1 = target: T2, DAPK1 (Homo sapiens, UniProt P53355); assay: Kinase panel profiling: DAPK1; format: biochemical; settings: ATP equal to KM
# T2 construct: purchased Thermo Fisher Scientific (Invitrogen) SelectScreen (Z'-LYTE)
# HCK = target: T3, HCK (Homo sapiens, UniProt P08631); assay: Kinase panel profiling: HCK; format: biochemical; settings: ATP equal to KM
# T3 construct: purchased Thermo Fisher Scientific (Invitrogen) SelectScreen (Z'-LYTE)
# ALK = target: T4, ALK (Homo sapiens, UniProt Q9UM73); assay: Kinase panel profiling: ALK; format: biochemical; settings: ATP equal to KM
# T4 construct: purchased Thermo Fisher Scientific (Invitrogen) SelectScreen (Z'-LYTE)
# FGFR1 = target: T5, FGFR1 (Homo sapiens, UniProt P11362); assay: Kinase panel profiling: FGFR1; format: biochemical; settings: ATP equal to KM
# T5 construct: purchased Thermo Fisher Scientific (Invitrogen) SelectScreen (Z'-LYTE)
# FER = target: T6, FER (Homo sapiens, UniProt P16591); assay: Kinase panel profiling: FER; format: biochemical; settings: ATP equal to KM
# T6 construct: purchased Thermo Fisher Scientific (Invitrogen) SelectScreen (Z'-LYTE)
# [1] = Kinetic solubility, spectrophotometric; format: physicochemical; settings: aqueous buffer, kinetic from dmso stock, spectrophotometrically at pH 7.4 in HEPES buffer
# ERBB4 (HER4) = target: T7, ERBB4 (HER4) (Homo sapiens, UniProt Q15303); assay: Kinase panel profiling: ERBB4; format: biochemical; settings: ATP equal to KM
# T7 construct: purchased Thermo Fisher Scientific (Invitrogen) SelectScreen (Z'-LYTE)
# CLK1 = target: T8, CLK1 (Homo sapiens, UniProt P49759); assay: Kinase panel profiling: CLK1; format: biochemical; settings: ATP equal to KM
# T8 construct: purchased Thermo Fisher Scientific (Invitrogen) SelectScreen (Z'-LYTE)
# [2] = 1000 nM test concentration, read-out: Average inhibition (%)
# [3] = 1000 nM, first data point, read-out: Inhibition (%)
# [4] = 1000 nM, second data point, read-out: Inhibition (%)
# T3 sequence (P08631 whole entry): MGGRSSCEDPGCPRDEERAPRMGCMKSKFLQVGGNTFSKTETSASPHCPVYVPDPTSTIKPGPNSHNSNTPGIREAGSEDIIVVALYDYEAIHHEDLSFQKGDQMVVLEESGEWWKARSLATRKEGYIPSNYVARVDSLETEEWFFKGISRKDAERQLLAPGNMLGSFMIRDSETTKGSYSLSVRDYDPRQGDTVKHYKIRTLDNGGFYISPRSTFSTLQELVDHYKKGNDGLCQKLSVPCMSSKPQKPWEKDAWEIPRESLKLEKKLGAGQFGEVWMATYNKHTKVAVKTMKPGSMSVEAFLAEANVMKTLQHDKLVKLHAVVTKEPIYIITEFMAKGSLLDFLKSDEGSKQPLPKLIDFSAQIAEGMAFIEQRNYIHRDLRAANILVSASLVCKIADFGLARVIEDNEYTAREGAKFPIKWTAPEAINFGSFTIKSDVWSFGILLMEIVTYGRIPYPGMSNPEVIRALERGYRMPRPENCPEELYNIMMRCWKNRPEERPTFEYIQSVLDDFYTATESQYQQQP
# T6 sequence (P16591 whole entry): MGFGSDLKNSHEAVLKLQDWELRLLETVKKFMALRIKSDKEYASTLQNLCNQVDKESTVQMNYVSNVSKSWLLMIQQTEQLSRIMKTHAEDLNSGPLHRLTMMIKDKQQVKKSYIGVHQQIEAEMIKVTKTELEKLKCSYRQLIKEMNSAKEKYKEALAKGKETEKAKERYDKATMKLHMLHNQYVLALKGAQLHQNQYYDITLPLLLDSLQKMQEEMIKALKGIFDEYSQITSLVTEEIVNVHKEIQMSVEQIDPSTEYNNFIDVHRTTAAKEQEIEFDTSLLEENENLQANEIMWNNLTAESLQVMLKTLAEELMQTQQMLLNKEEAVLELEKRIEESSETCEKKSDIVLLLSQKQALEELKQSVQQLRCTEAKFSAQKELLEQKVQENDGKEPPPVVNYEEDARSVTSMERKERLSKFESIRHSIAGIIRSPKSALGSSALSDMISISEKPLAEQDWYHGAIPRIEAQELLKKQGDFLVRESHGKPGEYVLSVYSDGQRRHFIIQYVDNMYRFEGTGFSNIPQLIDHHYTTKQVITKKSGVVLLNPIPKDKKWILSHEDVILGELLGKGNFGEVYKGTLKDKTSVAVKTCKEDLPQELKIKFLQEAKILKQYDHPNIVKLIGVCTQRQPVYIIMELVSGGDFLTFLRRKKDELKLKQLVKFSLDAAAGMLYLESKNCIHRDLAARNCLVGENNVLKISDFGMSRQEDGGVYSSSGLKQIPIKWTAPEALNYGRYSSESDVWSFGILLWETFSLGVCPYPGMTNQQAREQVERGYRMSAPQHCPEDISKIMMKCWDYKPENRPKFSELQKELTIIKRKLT
# T5 sequence (P11362 22-822): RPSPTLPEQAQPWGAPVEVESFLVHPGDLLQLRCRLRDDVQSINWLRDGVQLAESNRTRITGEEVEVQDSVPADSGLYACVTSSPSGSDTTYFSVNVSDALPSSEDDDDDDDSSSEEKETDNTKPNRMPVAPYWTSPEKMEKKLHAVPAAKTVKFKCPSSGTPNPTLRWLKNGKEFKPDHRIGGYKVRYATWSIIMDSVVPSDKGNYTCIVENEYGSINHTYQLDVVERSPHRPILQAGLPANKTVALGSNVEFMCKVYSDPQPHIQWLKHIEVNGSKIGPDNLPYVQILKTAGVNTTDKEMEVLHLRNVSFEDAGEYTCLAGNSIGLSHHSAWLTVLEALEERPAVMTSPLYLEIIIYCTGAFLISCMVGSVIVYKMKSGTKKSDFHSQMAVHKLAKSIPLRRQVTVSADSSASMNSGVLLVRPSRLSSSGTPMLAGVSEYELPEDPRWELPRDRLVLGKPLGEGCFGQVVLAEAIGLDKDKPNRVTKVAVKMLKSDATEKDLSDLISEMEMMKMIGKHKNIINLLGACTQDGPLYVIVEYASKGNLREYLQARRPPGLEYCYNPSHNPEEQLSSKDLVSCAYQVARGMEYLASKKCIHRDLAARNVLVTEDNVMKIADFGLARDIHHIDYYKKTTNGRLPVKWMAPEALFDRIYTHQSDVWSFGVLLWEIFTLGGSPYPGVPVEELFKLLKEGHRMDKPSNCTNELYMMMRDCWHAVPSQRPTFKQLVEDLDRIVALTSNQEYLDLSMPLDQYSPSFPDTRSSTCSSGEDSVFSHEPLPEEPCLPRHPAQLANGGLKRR
# Sequence of ROCK1 (Q13464 whole entry): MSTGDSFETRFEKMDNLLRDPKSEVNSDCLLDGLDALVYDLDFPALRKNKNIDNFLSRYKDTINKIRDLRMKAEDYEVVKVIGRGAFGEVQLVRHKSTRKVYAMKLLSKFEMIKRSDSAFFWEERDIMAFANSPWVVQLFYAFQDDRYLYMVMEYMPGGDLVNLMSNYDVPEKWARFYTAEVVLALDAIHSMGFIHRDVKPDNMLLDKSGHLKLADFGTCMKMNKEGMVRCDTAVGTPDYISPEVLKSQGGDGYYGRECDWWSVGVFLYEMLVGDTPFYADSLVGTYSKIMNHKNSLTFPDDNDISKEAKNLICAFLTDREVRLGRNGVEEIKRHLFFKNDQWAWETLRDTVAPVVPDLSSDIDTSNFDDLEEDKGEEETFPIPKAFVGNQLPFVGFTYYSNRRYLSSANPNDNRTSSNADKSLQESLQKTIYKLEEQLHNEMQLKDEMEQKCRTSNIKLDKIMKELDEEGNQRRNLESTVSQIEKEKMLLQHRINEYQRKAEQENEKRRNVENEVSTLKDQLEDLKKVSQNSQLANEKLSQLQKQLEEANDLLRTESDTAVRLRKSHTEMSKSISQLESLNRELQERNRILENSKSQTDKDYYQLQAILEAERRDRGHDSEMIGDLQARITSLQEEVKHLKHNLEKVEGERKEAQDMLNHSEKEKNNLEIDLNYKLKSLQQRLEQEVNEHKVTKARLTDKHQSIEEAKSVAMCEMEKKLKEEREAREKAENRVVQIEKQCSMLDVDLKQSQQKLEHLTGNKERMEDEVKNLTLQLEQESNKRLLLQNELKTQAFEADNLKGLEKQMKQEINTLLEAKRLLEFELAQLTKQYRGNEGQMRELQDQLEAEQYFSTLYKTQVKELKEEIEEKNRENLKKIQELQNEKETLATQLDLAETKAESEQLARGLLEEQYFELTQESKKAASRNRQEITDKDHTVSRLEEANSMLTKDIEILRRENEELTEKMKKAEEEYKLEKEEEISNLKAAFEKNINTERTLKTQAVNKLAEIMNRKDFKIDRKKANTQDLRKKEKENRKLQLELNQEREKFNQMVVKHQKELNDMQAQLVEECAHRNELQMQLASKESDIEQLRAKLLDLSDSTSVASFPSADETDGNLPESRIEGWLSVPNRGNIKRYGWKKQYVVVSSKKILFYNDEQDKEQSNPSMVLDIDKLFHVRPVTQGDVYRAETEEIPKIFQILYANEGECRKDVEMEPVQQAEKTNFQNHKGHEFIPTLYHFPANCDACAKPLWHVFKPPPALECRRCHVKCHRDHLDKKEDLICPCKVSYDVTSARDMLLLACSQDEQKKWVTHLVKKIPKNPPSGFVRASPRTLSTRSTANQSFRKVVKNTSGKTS
# T2 sequence (P53355 whole entry): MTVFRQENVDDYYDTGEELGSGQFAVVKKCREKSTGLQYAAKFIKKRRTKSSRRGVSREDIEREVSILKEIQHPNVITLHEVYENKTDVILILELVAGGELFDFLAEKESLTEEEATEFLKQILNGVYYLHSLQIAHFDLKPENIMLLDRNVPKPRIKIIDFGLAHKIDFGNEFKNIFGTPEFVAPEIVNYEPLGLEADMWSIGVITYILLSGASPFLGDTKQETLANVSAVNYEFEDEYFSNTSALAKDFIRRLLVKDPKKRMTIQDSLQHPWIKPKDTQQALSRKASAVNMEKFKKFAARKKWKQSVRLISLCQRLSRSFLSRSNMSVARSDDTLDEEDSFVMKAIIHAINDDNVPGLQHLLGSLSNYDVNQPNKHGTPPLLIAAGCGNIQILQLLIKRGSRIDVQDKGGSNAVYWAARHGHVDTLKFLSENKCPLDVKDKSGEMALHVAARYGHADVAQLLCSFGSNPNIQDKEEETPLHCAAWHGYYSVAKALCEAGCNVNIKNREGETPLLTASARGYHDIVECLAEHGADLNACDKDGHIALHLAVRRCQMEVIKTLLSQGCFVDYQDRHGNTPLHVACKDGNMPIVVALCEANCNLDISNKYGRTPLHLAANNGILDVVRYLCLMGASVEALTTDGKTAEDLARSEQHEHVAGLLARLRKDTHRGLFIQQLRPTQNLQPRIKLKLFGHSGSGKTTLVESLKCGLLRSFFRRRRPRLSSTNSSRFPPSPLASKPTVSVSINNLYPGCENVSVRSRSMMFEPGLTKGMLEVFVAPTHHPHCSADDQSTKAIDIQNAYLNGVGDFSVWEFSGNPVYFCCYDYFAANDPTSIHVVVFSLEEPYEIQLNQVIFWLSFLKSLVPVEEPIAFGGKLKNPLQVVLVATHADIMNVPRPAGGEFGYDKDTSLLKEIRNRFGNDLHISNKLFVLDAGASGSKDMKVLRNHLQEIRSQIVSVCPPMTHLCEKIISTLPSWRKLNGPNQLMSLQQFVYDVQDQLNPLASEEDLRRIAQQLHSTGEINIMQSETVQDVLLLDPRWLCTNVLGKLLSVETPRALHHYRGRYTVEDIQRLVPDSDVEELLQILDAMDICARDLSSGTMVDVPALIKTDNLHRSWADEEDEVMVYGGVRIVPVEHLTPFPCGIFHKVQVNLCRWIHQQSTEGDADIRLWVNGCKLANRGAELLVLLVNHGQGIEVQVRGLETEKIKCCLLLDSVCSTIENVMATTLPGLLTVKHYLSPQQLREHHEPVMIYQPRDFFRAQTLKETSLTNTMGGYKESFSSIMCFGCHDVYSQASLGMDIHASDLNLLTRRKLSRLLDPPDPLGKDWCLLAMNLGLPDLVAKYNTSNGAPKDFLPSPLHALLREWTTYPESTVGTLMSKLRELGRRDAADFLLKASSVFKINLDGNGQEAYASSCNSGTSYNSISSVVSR
compound,measurement,setting,value
"Cc1cccc(CN(C)c2ncnc3[nH]c(-c4cn(Cc5cccnc5)nn4)cc23)c1 [Compound 27a, N-Methyl-N-(3-methylbenzyl)-6-(1-(pyridin-3-ylmethyl)-1H-1,2,3-triazol-4-yl)-7H-pyrrolo[2,3-d]pyrimidin-4-amine]",inhibition at 1 µM,ROCK1; [2],0%
same,inhibition at 1 µM,ROCK1; [3],2%
same,inhibition at 1 µM,ROCK1; [4],-2%
same,inhibition at 1 µM,BTK; [2],46%
same,inhibition at 1 µM,BTK; [3],50%
same,inhibition at 1 µM,BTK; [4],42%
same,inhibition at 1 µM,DAPK1; [2],4%
same,inhibition at 1 µM,DAPK1; [3],13%
same,inhibition at 1 µM,DAPK1; [4],-5%
same,inhibition at 1 µM,HCK; [2],77%
same,inhibition at 1 µM,HCK; [3],77%
same,inhibition at 1 µM,HCK; [4],76%
same,inhibition at 1 µM,ALK; [2],24%
same,inhibition at 1 µM,ALK; [3],24%
same,inhibition at 1 µM,ALK; [4],25%
same,inhibition at 1 µM,FGFR1; [2],9%
same,inhibition at 1 µM,FGFR1; [3],9%
same,inhibition at 1 µM,FGFR1; [4],8%
same,inhibition at 1 µM,FER; [2],15%
same,inhibition at 1 µM,FER; [3],16%
same,inhibition at 1 µM,FER; [4],14%
same,solubility kinetic,[1],3.1 µM
same,inhibition at 1 µM,ERBB4 (HER4); [2],14%
same,inhibition at 1 µM,ERBB4 (HER4); [3],13%
same,inhibition at 1 µM,ERBB4 (HER4); [4],15%
same,inhibition at 1 µM,CLK1; [2],8%
same,inhibition at 1 µM,CLK1; [3],8%
